The structures appear in SMILES notation. Activity calls are given as the source filed them. The calls are words filed in the database; no cut-off is given here.

For experiment [1], the system named is Rattus norvegicus. Put plainly: Percentage fall in systolic blood pressure in spontaneously hypertensive rats 1 hr after 50 mg/kg p.o. administration; Not significant. Format: functional, organism-based. Further details: dose 50 mg/kg. The conditions noted are these: Artery, at 50 mg/kg.
For experiment [2], the system named is Rattus norvegicus. Put plainly: Antihypertensive activity as percentage fall in systolic blood pressure in spontaneously hypertensive rats 4 hr after 25 mg/kg po administration;NS means nonsignificant difference between treated and control group. The conditions noted are these: Artery, at 25 mg/kg. In kind it is functional, organism-based. On the set-up: dose 25 mg/kg.

The subject of experiment [3] is Rattus norvegicus. The experiment in a line: Antihypertensive activity as percentage fall in systolic blood pressure in spontaneously hypertensive rats 3h after 25 mg/kg po administration;NS means nonsignificant difference between treated and control group. In kind it is functional, organism-based. Further details: dose 25 mg/kg. The following applies: Artery, at 25 mg/kg.

Experiment [4] has as its system Rattus norvegicus. Put plainly: Percentage fall in systolic blood pressure in spontaneously hypertensive rats 2 hr after 50 mg/kg p.o. administration; Not significant. On the set-up: dose 50 mg/kg. Format: functional, organism-based. The following applies: Artery, at 50 mg/kg.
The test system of experiment [5] is Rattus norvegicus. Put plainly: Percentage fall in systolic blood pressure in spontaneously hypertensive rats 3h after 50 mg/kg p.o. administration; Not significant. In kind it is functional, organism-based. On the set-up: dose 50 mg/kg. The following applies: Artery, at 50 mg/kg.
Experiment [6] deals with Rattus norvegicus. Put plainly: Antihypertensive activity as percentage fall in systolic blood pressure in spontaneously hypertensive rats 4 hr after 50 mg/kg po administration; NS means nonsignificant difference between treated and control group. On the set-up: dose 50 mg/kg. Format: functional, organism-based. The following applies: Artery, at 50 mg/kg.
Experiment [7] concerns Rattus norvegicus. The experiment in a line: Antihypertensive activity as percentage fall in systolic blood pressure in spontaneously hypertensive rats 1 hr after 25 mg/kg po administration;NS means nonsignificant difference between treated and control group. The following applies: Artery, at 25 mg/kg. Format: functional, organism-based. Further details: dose 25 mg/kg.
Experiment [8] has as its system Rattus norvegicus. Put plainly: Antihypertensive activity as percentage fall in systolic blood pressure in spontaneously hypertensive rats 3h after 25 mg/kg po administration. In kind it is functional.
Experiment [9] deals with Rattus norvegicus. The experiment in a line: Percentage fall in systolic blood pressure in spontaneously hypertensive rats 2 hr after 50 mg/kg p.o. administration. The following applies: route oral. In kind it is functional, Artery.
In experiment [10] the test system is Rattus norvegicus. The experiment in a line: Antihypertensive activity as percentage fall in systolic blood pressure in spontaneously hypertensive rats 2 hr after 25 mg/kg po administration;NS means nonsignificant difference between treated and control group. The following applies: Artery, at 25 mg/kg. In kind it is functional, organism-based. Further details: dose 25 mg/kg.

The subject of experiment [11] is Rattus norvegicus. Put plainly: Antihypertensive activity as percentage fall in systolic blood pressure in spontaneously hypertensive rats 4 hr after 50 mg/kg po administration. In kind it is functional, Artery.
The test system of experiment [12] is Rattus norvegicus. The experiment in a line: Antihypertensive activity as percentage fall in systolic blood pressure in spontaneously hypertensive rats 1 hr after 50 mg/kg po administration. Format: functional, Artery.
Experiment [13] deals with Rattus norvegicus. The experiment in a line: Antihypertensive activity as percentage fall in systolic blood pressure in spontaneously hypertensive rats 2 hr after 0.31 mg/kg po administration. In kind it is functional, Artery.
Experiment [14] concerns Rattus norvegicus. Put plainly: Antihypertensive activity as percentage fall in systolic blood pressure in spontaneously hypertensive rats 4 hr after 0.31 mg/kg po administration. Format: functional, Artery.
Experiment [15] concerns Rattus norvegicus. Put plainly: Antihypertensive activity as percentage fall in systolic blood pressure in spontaneously hypertensive rats 2 hr after 1.25 mg/kg po administration.
Experiment [16] relates to Rattus norvegicus. The experiment in a line: Antihypertensive activity as percentage fall in systolic blood pressure in spontaneously hypertensive rats 1 hr after 0.31 mg/kg po administration. Format: functional, Artery.
The test system of experiment [17] is Rattus norvegicus. The experiment in a line: Antihypertensive activity as percentage fall in systolic blood pressure in spontaneously hypertensive rats 3h after 1.25 mg/kg po administration.
For experiment [18], the system named is Rattus norvegicus. Put plainly: Antihypertensive activity as percentage fall in systolic blood pressure in spontaneously hypertensive rats 4 hr after 1.25 mg/kg po administration.
The subject of experiment [19] is Rattus norvegicus. Put plainly: Antihypertensive activity as percentage fall in systolic blood pressure in spontaneously hypertensive rats 1 hr after 1.25 mg/kg po administration.
The test system of experiment [20] is Rattus norvegicus. Put plainly: Antihypertensive activity as percentage fall in systolic blood pressure in spontaneously hypertensive rats 3h after 0.31 mg/kg po administration. Format: functional, Artery.
Experiment [21] deals with Rattus norvegicus. The experiment in a line: Antihypertensive activity as percentage fall in systolic blood pressure in spontaneously hypertensive rats 4 hr after 25 mg/kg po administration. Format: functional, Artery.
Experiment [22] deals with Rattus norvegicus. The experiment in a line: Antihypertensive activity as percentage fall in systolic blood pressure in spontaneously hypertensive rats 3h after 12.5 mg/kg po administration;NS means nonsignificant difference between treated and control group. Format: functional, organism-based. Further details: dose 12.5 mg/kg. The following applies: Artery, at 12.5 mg/kg.

In experiment [23] the test system is Rattus norvegicus. Put plainly: Antihypertensive activity as percentage fall in systolic blood pressure in spontaneously hypertensive rats 2 hr after 12.5 mg/kg po administration;NS means nonsignificant difference between treated and control group. Format: functional, organism-based. Further details: dose 12.5 mg/kg. The conditions noted are these: Artery, at 12.5 mg/kg.

The test system of experiment [24] is Rattus norvegicus. The experiment in a line: Antihypertensive activity as percentage fall in systolic blood pressure in spontaneously hypertensive rats 1 hr after 12.5 mg/kg po administration;NS means nonsignificant difference between treated and control group. In kind it is functional, organism-based. Further details: dose 12.5 mg/kg. The following applies: Artery, at 12.5 mg/kg.

Experiment [25] concerns Rattus norvegicus. The experiment in a line: Antihypertensive activity as percentage fall in systolic blood pressure in spontaneously hypertensive rats 2 hr after 25 mg/kg po administration. Format: functional, Artery.
For experiment [26], the system named is Rattus norvegicus. Put plainly: Antihypertensive activity as percentage fall in systolic blood pressure in spontaneously hypertensive rats 1 hr after 25 mg/kg po administration. In kind it is functional, Artery.
Experiment [27] deals with Rattus norvegicus. Put plainly: Antihypertensive activity as percentage fall in systolic blood pressure in spontaneously hypertensive rats 4 hr after 12.5 mg/kg po administration;NS means nonsignificant difference between treated and control group. In kind it is functional, organism-based. Further details: dose 12.5 mg/kg. The following applies: Artery, at 12.5 mg/kg.

Experiment [28] deals with Rattus norvegicus. Put plainly: Antihypertensive activity as percentage fall in systolic blood pressure in spontaneously hypertensive rats 3h after 50 mg/kg po administration. In kind it is functional, Artery.

In the case of `CC[C@H]1CN2CCc3cc(OC)c(OC)cc3[C@@H]2C[C@]12CNC(=O)O2`, the Fall result in the experiment with Rattus norvegicus [1], with Rattus norvegicus [2], in the experiment on Rattus norvegicus [3], in the experiment on Rattus norvegicus [4], in the experiment with Rattus norvegicus [5] and in the experiment with Rattus norvegicus [6] was “Not significant” each time.

On to `CCN1C[C@]2(CCN3CCc4cc(OC)c(OC)cc4[C@@H]3C2)OC1=O`, for which the Fall result in the experiment with Rattus norvegicus [2] was “Not significant”; with Rattus norvegicus [7], “Not significant”; in the experiment on Rattus norvegicus [8] (Artery, at 25 mg/kg) it was “Not significant”; with Rattus norvegicus [9] it was 30%; in the experiment with Rattus norvegicus [10], “Not significant”; with Rattus norvegicus [11], 18%. Besides, the values for the Fall in the experiment with Rattus norvegicus [12] and in the experiment on Rattus norvegicus [5] were 43% and “Not significant”, respectively.

With `COc1cc2nc(N3CCN(C(=O)c4ccco4)CC3)nc(N)c2cc1OC` [PRAZOSIN], the Fall in the experiment with Rattus norvegicus [13] is 31%; in the experiment with Rattus norvegicus [14], 26%; with Rattus norvegicus [15], 46%; in the experiment on Rattus norvegicus [16], 19%; in the experiment with Rattus norvegicus [17], 36%; in the experiment on Rattus norvegicus [18] it was 31%. For the same compound, the values for the Fall in the experiment on Rattus norvegicus [19] and with Rattus norvegicus [20] were 26% and 21%, respectively.

On to `O=C(NC1CCN(CCc2c[nH]c3ccccc23)CC1)c1ccccc1` [INDORAMIN], for which the Fall in the experiment on Rattus norvegicus [21] stood at 30%; in the experiment on Rattus norvegicus [8] it was 34%; in the experiment on Rattus norvegicus [25], 28%; with Rattus norvegicus [26] it was 27%. For the same compound, the Fall entry in the experiment with Rattus norvegicus [22], in the experiment with Rattus norvegicus [23], in the experiment on Rattus norvegicus [24] and with Rattus norvegicus [27] was “inactive” throughout.

On to `O=C1NC[C@@]2(CCN3CCc4ccccc4[C@@H]3C2)O1`, for which the Fall in the experiment with Rattus norvegicus [21] was 25%; with Rattus norvegicus [3], “Not significant”; with Rattus norvegicus [28], 14%; in the experiment with Rattus norvegicus [9], 26%; in the experiment with Rattus norvegicus [10] it was “Not significant”; in the experiment on Rattus norvegicus [11] it was 12%. Moreover, the Fall stood at 22% with Rattus norvegicus [12] and 20% in the experiment on Rattus norvegicus [26].

Take `COc1cc2c(cc1OC)[C@@H]1C[C@]3(CNC(=O)O3)[C@@H](C)CN1CC2`: the Fall is 15% in the experiment on Rattus norvegicus [21]; “Not significant” in the experiment on Rattus norvegicus [3]; 37% in the experiment on Rattus norvegicus [28]; 41% in the experiment with Rattus norvegicus [9]; 19% in the experiment with Rattus norvegicus [25]; 25% with Rattus norvegicus [11]. The Fall with Rattus norvegicus [12] came out at 47%; in the experiment with Rattus norvegicus [26] it was 27%.

Values taken from ChEMBL document CHEMBL1122367, “Synthesis and antihypertensive activity of a series of spiro[1,3,4,6,7,11b-hexahydro-2H-benzo[a]quinolizine-2,5'-oxazolidin-2'-one]s” (1983).
